According to BindingDB's records for doi:10.1038/sj.mp.4000336 (University of Toronto, 1998):

Molecular target: 5-hydroxytryptamine receptor 2A (Rattus norvegicus, UniProt P14842)
Sequence (P14842 whole entry): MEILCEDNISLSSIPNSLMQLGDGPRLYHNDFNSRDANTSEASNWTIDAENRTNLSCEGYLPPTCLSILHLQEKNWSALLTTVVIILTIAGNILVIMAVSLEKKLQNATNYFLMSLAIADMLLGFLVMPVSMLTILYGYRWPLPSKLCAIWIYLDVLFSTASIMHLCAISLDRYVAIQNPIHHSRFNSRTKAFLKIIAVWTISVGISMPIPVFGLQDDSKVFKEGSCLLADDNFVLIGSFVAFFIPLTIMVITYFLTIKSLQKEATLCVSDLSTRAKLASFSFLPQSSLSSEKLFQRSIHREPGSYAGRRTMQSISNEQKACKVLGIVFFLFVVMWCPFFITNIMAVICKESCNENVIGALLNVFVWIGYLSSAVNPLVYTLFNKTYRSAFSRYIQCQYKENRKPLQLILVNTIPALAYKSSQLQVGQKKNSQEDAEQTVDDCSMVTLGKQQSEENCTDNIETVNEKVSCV

With CCN1CCC[C@H]1CNC(=O)c1c(OC)ccc(Br)c1OC the Ki was 5.2 µM.
CCN1CCC[C@H]1CNC(=O)c1c(O)c(Cl)cc(Cl)c1OC [3,5-Dichloro-N-(1-ethyl-pyrrolidin-2-ylmethyl)-2-hydroxy-6-methoxy-benzamide (raclopride)] showed a Ki of 4 µM.
O=C1C2CCCCC2C(=O)N1CCCCN1CCN(c2nsc3ccccc23)CC1 (stereo not drawn) [NSC_115368] gave a Ki of 0.0013 µM.
